Assay results reported in patent US6544987B2, “Compounds, compositions, and methods for stimulating neuronal growth and elongation” (Pfizer Inc., priority 1999, dated 2003).
Where “and” joins values, the source holds several entries; their conditions need not be identical. Equal values may be shown once.

How the values were obtained:
[1] = molecular target: T1, FKBP12 (Homo sapiens, UniProt P62942); test: Affinity for FKBP-12 (Ki), succinyl-Ala-Leu-Pro-Phe-pNA chymotrypsin-coupled assay; assay type: biochemical; parameters: key to FKBP12 inhibition (in Kiapps column): NI: no inhibition; NSI: no significant inhibition; details: for Ki: Table 2, read-out: FKBP12 Kiapps
Procedure: In a quartz cuvette, a final 1 mL buffer concentration was reached (50 mM Hepes, 100 mM NaCl, pH 8.0). Within this final reaction volume, 3.5 μL […] FKBP-12 (in 50 mM Hepes, 100 mM NaCl, pH 8.0) and 10 μL test compound in DMSO were added. The reaction was initiated by adding 10 μL chymotrypsin (100 mg/mL in 1 mM HCl) followed by 5 μL (1-20 mM succinyl-Ala-Leu-Pro-Phe-pNA in 240 mM LiCl/TFE).
The absorbance at 390 nm versus time was monitored for up to 400 seconds. Rate constants were determined from the absorbance versus time plots generated.

[2] = molecular target: T1, FKBP12; test: Binding to FKBP by microcalorimetry
Procedure: Binding of compounds to FKBP may be measured directly using microcalorimetry. Calorimetric titrations are carried out using the MCS-ITC instrument (MicroCal Inc., Northhampton, Mass.). The titrations may be conducted as follows. Protein dialysate is degassed for 15 minutes using MicroCal equipment. Stock inhibitor solution is added to co-solvent (typically DMSO) and degassed dialysate, followed by brief sonication, to produce the final inhibitor solutions to be used in the titrations. Final inhibitor solutions are in the concentration range 10 to 80 μM. Dialyzed protein is added to co-solvent and degassed dialysate to produce FKBP12 solutions in the concentration range 200 to 1600 μM. As both solutions are prepared using degassed dialysate, no additional degassing of the solutions is performed. Co-solvent is added to the protein solutions to maintain a fixed co-solvent concentration throughout the course of the titration. Protein is titrated into inhibitor using a 125-μL injection syringe. The titrations are conducted with the ligand in the cell due to low solubility of inhibitors. Typically, a preliminary 2-μL injection is followed by fifteen 8-μL injections made at varying injection intervals. A full set of dilution controls is conducted for each titration. An appropriate volume of co-solvent is added to degassed dialysate to produce the buffered co-solvent solution used to obtain heats of dilution of the reactants. After correcting for the heats of dilution and deletion of the preliminary injection, the titration results are fitted using the “One Set of Sites Model” in the ORIGIN software package supplied with the instrument.

[3] = system: PC12 rat pheochromocytoma cells; test: Neurite outgrowth activity in PC12 rat pheochromocytoma assay; assay type: cell-based; details: PC-12 cells; active concentration range
Procedure: For example, compounds may be tested to determine their neurotrophic activity using the method described by Lyons et al., Proc. Natl. Acad. Sci., 91:3191-3195 (1994). In this rat pheochromocytoma assay for neurite outgrowth, PC12 rat pheochromocytoma cells are maintained at 37° C. and 5% CO2 in Dulbecco's modified Eagle's medium (DMEM) supplemented with 10% heat-inactivated horse serum and 5% heat-inactivated fetal bovine serum. Cells are then plated, coated at 10^5 per 35 mm culture well with rat tail collagen at […], and allowed to attach. Medium is then replaced with DMEM supplemented with 2% horse serum, 1% fetal bovine serum, nerve growth factor (NGF), and/or varying concentrations of test compounds. The control cultures are administered NGF without any of the test compounds.

[4] = Solubility noted in FKBP12 assay table; assay type: physicochemical; details: read-out: Sol (solubility)
[5] = molecular target: T1, FKBP12; test: Rotamase inhibition assay (N-succinyl-Ala-Ala-Pro-Phe-p-nitroanilide, chymotrypsin-coupled); assay type: biochemical; details: Table 1; read-out: Rotamase Ki(app)
Procedure: In the rotamase inhibition assay, isomerization of an artificial substrate N-succinyl-Ala-Ala-Pro-Phe-p-nitroanilide is followed spectrophotometrically. The assay includes the cis form of the substrate, FKBP12, the compound being tested, and chymotrypsin. Chymotrypsin is able to cleave p-nitroaniline from the trans form of the substrate, but not from the cis form. Release of p-nitroaniline is measured spectrophotometrically. Using this assay, various amounts of the FKBP rotamase-inhibiting compounds of formula (I) were added to cis-N-succinyl-alanine-alanine-proline-phenylalanine-para-nitroaniline (BACHEM, 3132 Kashiwa Street, Torrance, Calif. 90505) in the presence of FKBP12 and chymotrypsin. Spectrophotometric measurements of p-nitroaniline concentrations allowed estimation of the apparent Ki values, which are provided in Table 1 below.

T1 sequence (P62942 whole entry, species assumed): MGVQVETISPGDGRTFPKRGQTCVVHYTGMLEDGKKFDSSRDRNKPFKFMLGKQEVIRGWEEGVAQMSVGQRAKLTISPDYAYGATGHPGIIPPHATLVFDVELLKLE

Ki [1] | Kd [2] [nM] | FKBP12 inhibition (in Kiapps column) ([1]; at 1 μM) | solubility [4] [µM] | Ki [5] [nM] | Structure (SMILES) | Neurite-Outgrowth Activity (PC-12) [3] [µM]
3960 nM | 14000 |  |  |  | O=C(OCCCc1cccnc1)[C@@H]1CCCN1S(=O)(=O)Nc1ccccc1 [Compound 33, 1-Phenylsulfamoyl-pyrrolidine-2S-carboxylic acid 3-pyridin-3-yl-propyl ester] | 0.001 to 1
 |  | NI | < 30 |  | COc1cc(NS(=O)(=O)N2[C@@H]3CC[C@@H](C3)[C@H]2C(=O)OCCCCc2ccccc2)cc(OC)c1OC [Compound 84, 2-(3,4,5-Trimethoxy-phenylsulfamoyl)-2-aza-bicyclo[2.2.1]heptane-exo-3-carboxylic acid 4-phenyl-butyl ester] | 
200 nM and 180 nM | 1200 |  |  | 200 | COc1cc(NS(=O)(=O)N2CCCC[C@H]2C(=O)OCCCCc2ccccc2)cc(OC)c1OC [Compound 25, 1-(3,4,5-Trimethoxy-phenylsulfamoyl)-piperidine-2S-carboxylic acid 4-phenyl-butyl ester] | 0.001 to 1
2790 nM and 1100 nM | 4500 |  |  | 2790 | CCC(C)(C)NS(=O)(=O)N1CCC[C@H]1C(=O)OCCCc1cccnc1 [Compound 31, 1-(1,1-Dimethyl-propylsulfamoyl)-pyrrolidine-2S-carboxylic acid 3-pyridin-3-yl-propyl ester] | 0.001 to 1
